The IC50 is the midpoint of a concentration-inhibition curve.

Format in all cases: cell-based
One assay concerns MDA-MB-468 tumor cells. Nature of the assay: Inhibition of MDA-MB-468 tumor cell proliferation (CellTiter-Glo). As to conditions: Homo sapiens, HER2-negative cells, 96 hours, cell viability, read-out: IC50, inhibitory effects on MDA-MB-468 tumor cells. The method, then: (§1) Tumor cells in the logarithmic phase of growth were collected, and 5000 cells per well were evenly inoculated in each hole of the 96-well plate. After the cell adhesion overnight, the cells were treated with different concentrations of drugs for 96 hours. Cell viability was measured by CellTiter-Glo® luminescence cell viability detection kit, and the percentage of cell viability was calculated.
For orientation: In ATP-based viability assays light output follows the ATP content of the culture.

The subject of the next assay is SK-BR-3 tumor cells. Nature of the assay: Inhibition of SK-BR-3 tumor cell proliferation (CellTiter-Glo). As to conditions: Homo sapiens, HER2 high expression cells, 96 hours, cell viability, read-out: IC50, inhibitory effects on SK-BR-3 tumor cells. The method, then: as §1
A further assay concerns NCI-N87 tumor cells. Nature of the assay: Inhibition of NCI-N87 tumor cell proliferation (CellTiter-Glo). As to conditions: Homo sapiens, HER2 high expression cells, 96 hours, cell viability, read-out: IC50, inhibitory effects on NCI-N87 tumor cells. The method, then:
as §1

Turning to `C=C1C[C@@H]2CC[C@@]34C[C@H]5O[C@H]6[C@@H](O3)[C@H]3O[C@H](CC[C@@H]3O[C@H]6[C@H]5O4)CC(=O)C[C@@H]3[C@@H](OC)[C@@H](C[C@H](O)CN)O[C@H]3C[C@H]3O[C@@H](CC[C@@H]1O2)C[C@@H](C)C3=C` [Eribulin], the values for the IC50 with MDA-MB-468 tumor cells, in the assay with SK-BR-3 tumor cells and with NCI-N87 tumor cells were 0.0933 nM, 0.305 nM and 0.614 nM, respectively.

The values are drawn from patent US20260284211A1, “DISACCHARIDE LINKER, LINKER-PAYLOAD CONTAINING THE SAME AND GLYCAN CHAIN-REMODELED ANTIBODY-DRUG CONJUGATE, PREPARATION METHOD AND USES THEREOF” (GENEQUANTUM HEALTHCARE (SUZHOU) CO., LTD., priority 2023, published 2026).
